What was measured:
Assay type in all cases: cell-based
[1] = biological target: T1, human IGF-1R (NIH-3T3 cells over expressing human IGF-1R) (Homo sapiens, UniProt P08069); test: IGF-1R cellular autophosphorylation (DELFIA); settings: IGF-1 stimulated
T1 construct: expressed in transfected cells; host or cells: NIH-3T3 (mouse fibroblasts)
Summary of the method: (§1)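 Autophosphorylation of IGF-1R or IR is measured in NIH-3T3 lines overexpressing each human receptor after 2 h compound pretreatment and a 15 min ligand challenge (IGF-1 30 ng/mL; insulin 3 ug/mL). Fluorescence is normalised to 100% stimulation.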

[2] = biological target: T2, IR (NIH-3T3 cells over expressing human IGF-1R or IR) (Homo sapiens, UniProt P06213); test: IR cellular autophosphorylation (DELFIA); settings: NIH-3T3 cells over expressing IR, insulin stimulated
T2 construct: expressed in transfected cells; host or cells: NIH-3T3 (mouse fibroblasts)
Summary of the method: as §1

[3] = system: NCI-H929 (multiple myeloma); test: Inhibition of cell proliferation, CellTiter-Glo, NCI-H929; settings: Homo sapiens, 72 h
Summary of the method: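 Cells were grown in medium with 10% FBS at 37° C, 5% CO2. Cell number was read as CellTiter-Glo luminescence (cellular ATP), with untreated wells as control.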

COLO205 (colon) = test: Inhibition of cell proliferation, CellTiter-Glo, COLO205; settings: Homo sapiens, COLO 205, 72 h
Summary of the method: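 Exponentially growing COLO205 cells in medium with 10% FBS were plated below 2000 cells/well at 37 °C, 5% CO2. Untreated wells served as controls.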

T1 sequence (P08069 31-1367): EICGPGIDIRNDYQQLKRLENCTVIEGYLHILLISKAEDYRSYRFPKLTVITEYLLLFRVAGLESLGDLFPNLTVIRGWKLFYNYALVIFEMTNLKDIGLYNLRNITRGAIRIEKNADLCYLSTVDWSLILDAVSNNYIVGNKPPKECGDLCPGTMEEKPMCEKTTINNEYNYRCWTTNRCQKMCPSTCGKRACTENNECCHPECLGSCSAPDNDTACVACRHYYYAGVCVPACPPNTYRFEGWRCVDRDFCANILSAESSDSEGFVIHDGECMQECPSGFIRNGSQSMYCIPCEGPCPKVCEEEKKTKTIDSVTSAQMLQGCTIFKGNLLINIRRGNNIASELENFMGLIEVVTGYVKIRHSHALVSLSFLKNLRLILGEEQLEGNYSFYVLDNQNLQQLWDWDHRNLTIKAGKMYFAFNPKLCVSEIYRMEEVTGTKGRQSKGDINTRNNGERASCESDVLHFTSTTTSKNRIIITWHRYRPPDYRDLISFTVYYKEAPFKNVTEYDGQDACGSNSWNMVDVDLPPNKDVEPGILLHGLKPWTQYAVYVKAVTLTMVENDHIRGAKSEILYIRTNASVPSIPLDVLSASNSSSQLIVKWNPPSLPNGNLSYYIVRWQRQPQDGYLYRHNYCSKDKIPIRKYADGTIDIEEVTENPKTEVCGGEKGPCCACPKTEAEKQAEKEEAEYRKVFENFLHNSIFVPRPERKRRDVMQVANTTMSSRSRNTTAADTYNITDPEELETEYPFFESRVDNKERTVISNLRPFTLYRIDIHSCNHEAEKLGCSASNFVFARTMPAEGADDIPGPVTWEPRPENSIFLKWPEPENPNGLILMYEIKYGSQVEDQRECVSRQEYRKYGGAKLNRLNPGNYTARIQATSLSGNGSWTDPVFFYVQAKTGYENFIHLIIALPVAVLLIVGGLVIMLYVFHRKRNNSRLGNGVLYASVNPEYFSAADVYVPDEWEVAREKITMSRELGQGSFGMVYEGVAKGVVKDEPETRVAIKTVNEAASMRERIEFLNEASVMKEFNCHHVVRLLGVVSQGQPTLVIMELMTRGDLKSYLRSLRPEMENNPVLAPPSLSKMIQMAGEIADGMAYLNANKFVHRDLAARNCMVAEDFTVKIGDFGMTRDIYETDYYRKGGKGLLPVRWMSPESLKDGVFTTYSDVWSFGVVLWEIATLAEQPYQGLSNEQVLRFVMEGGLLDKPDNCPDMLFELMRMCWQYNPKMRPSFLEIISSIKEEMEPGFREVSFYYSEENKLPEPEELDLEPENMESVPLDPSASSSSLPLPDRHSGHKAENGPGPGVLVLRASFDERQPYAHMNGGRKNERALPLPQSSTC
T2 sequence (P06213 28-1382): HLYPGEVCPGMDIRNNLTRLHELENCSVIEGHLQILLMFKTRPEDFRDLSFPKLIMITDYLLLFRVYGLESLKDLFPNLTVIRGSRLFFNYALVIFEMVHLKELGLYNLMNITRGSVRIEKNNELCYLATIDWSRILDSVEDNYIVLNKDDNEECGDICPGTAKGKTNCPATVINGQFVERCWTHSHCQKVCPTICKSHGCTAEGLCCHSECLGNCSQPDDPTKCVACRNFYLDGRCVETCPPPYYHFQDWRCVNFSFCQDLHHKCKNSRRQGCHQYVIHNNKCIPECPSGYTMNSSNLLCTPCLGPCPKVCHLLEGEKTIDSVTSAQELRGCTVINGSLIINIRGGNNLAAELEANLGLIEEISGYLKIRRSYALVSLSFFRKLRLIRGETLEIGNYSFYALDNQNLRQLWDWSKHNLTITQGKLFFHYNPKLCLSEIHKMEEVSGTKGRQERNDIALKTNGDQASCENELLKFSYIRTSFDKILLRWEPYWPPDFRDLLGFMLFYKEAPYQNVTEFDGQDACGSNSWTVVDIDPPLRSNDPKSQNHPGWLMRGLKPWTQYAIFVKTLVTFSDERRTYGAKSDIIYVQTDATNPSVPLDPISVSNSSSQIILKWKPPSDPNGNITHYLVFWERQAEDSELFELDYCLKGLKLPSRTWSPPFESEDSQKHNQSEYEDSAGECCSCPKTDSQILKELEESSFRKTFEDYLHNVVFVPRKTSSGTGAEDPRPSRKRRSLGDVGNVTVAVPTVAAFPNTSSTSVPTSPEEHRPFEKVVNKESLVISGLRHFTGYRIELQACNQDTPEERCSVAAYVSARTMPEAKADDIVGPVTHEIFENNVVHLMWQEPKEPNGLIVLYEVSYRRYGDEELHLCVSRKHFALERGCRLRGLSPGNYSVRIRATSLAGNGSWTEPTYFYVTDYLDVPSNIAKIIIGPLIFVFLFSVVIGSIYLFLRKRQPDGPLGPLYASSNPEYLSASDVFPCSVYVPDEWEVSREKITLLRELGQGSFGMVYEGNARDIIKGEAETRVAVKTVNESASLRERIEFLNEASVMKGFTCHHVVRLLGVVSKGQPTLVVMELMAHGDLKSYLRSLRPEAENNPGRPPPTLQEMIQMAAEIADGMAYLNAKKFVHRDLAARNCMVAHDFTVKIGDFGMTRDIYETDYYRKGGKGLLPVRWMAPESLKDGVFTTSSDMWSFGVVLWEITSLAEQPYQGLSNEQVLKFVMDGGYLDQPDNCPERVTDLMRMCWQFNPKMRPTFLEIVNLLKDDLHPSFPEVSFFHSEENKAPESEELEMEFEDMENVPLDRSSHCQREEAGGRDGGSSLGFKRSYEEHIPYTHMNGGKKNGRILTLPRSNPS

SMILES | IC50 [1] | IC50 [2] | IC50 [3] | IC50 (COLO205 (colon))
CCOc1cc(N2CCC(N3CCN(CCC(F)(F)F)CC3)CC2)ccc1Nc1nccc(-c2c(-c3cccc(C(=O)Nc4c(F)cccc4F)c3)nc3ccccn23)n1 [Example 118, N-(2,6-difluorophenyl)-3-(3-{2-[(2-(ethyloxy)-4-{4-[4-(3,3,3-trifluoropropyl)-1-piperazinyl]-1-piperidinyl}phenyl)amino]-4-pyrimidinyl}imidazo[1,2-a]pyridin-2-yl)benzamide] | 0.1 to 0.5 µM | 0.1 to 0.5 µM | 0.25 to 1 µM | 0.25 to 1 µM
CCOc1cc(N2CCC(CCS(C)(=O)=O)CC2)c(C)cc1Nc1nccc(-c2c(-c3cccc(C(=O)Nc4c(F)cccc4F)c3)nc3ccccn23)n1 [Example 221, N-(2,6-difluorophenyl)-3-(3-{2-[(2-(ethyloxy)-5-methyl-4-{4-[2-(methylsulfonyl)ethyl]-1-piperidinyl}phenyl)amino]-4-pyrimidinyl}imidazo[1,2-a]pyridin-2-yl)benzamide] | < 0.1 µM | < 0.1 µM | < 0.25 µM | 0.25 to 1 µM
COc1cc(N2CCC(C3CCN(CCS(C)(=O)=O)CC3)CC2)ccc1Nc1nccc(-c2c(-c3ccc(OC)c(C(=O)Nc4c(F)cccc4F)c3)nc3ccccn23)n1 [Example 98, N-(2,6-difluorophenyl)-2-(methyloxy)-5-(3-{2-[(2-(methyloxy)-4-{1′-[2-(methylsulfonyl)ethyl]-4,4′-bipiperidin-1-yl}phenyl)amino]-4-pyrimidinyl}imidazo[1,2-a]pyridin-2-yl)benzamide] | < 0.1 µM | < 0.1 µM | 0.25 to 1 µM | 0.25 to 1 µM
COc1cc(N2CCC(N3CCN(CCS(C)(=O)=O)CC3)CC2)c(Cl)cc1Nc1nccc(-c2c(-c3cccc(C(=O)Nc4c(F)cccc4F)c3)nc3ccccn23)n1 [Example 114, 3-[3-(2-{[5-chloro-2-(methyloxy)-4-(4-{4-[2-(methylsulfonyl)ethyl]-1-piperazinyl}-1-piperidinyl)phenyl]amino}-4-pyrimidinyl)imidazo[1,2-a]pyridin-2-yl]-N-(2,6-difluorophenyl)-benzamide] | < 0.1 µM | < 0.1 µM | < 0.25 µM | 0.25 to 1 µM

Next, values leading:

IC50 [1] | IC50 [2] | IC50 [3] | IC50 (COLO205 (colon)) | SMILES
< 0.1 µM | < 0.1 µM | < 0.25 µM | < 0.25 µM | CCOc1ccc(-c2nc3ccccn3c2-c2ccnc(Nc3ccc(N4CCN(S(C)(=O)=O)CC4)cc3OC)n2)cc1C(=O)Nc1c(F)cccc1F [Example 232, N-(2,6-difluorophenyl)-2-(ethyloxy)-5-{3-[2-({2-(methyloxy)-4-[4-(methylsulfonyl)-1-piperazinyl]phenyl]amino)-4-pyrimidinyl]imidazo[1,2-a]pyridin-2-yl}benzamide]
< 0.1 µM | < 0.1 µM | < 0.25 µM | < 0.25 µM | COc1cc(N2CCN(S(C)(=O)=O)CC2)c(C)cc1Nc1nccc(-c2c(-c3cccc(C(=O)Nc4c(F)cccc4F)c3)nc3ccccn23)n1 [Example 226, N-(2,6-difluorophenyl)-3-{3-[2-({5-methyl-2-(methyloxy)-4-[4-(methylsulfonyl)-1-piperazinyl]phenyl}amino)-4-pyrimidinyl]imidazo[1,2-a]pyridin-2-yl}benzamide]
< 0.1 µM | < 0.1 µM | < 0.25 µM | 0.25 to 1 µM | CCCc1cc(C2CCN(CCS(C)(=O)=O)CC2)ccc1Nc1nccc(-c2c(-c3ccc(OCC)c(C(=O)Nc4c(F)cccc4F)c3)nc3ccccn23)n1 [Example 168, N-(2,6-difluorophenyl)-2-(ethyloxy)-5-(3-{2-[(4-{1-[2-(methylsulfonyl)ethyl]-4-piperidinyl}-2-propylphenyl)amino]-4-pyrimidinyl}imidazo[1,2-a]pyridin-2-yl)benzamide]

Reference: US20100216779A1 (GLAXOSMITHKLINE LLC, priority 2007, published 2010)
